We go through one molecule from article PMC12214830, “The human RIF1-Long isoform interacts with BRCA1 to promote recombinational fork repair under DNA replication stress” (Nature Communications, 2025).

Type in all cases: cell-based, human
Test [1] concerns RPA. Nature of the test: chromatin-bound RPA immunofluorescence, RPE-1 cells. Conditions: HU 4 mM 24 h. The method, then:
(§1) Cells were grown on glass coverslips and treated as desired. Cells were then permeabilized with 0.5% TritonX-100 in PBS for 7 min on ice, and fixed with 4% w/v formaldehyde solution (Sigma HT5012) for 10 min at room temperature (RT). After fixation, coverslips were blocked with 3% BSA in PBS (RT, 1 h), incubated with primary antibodies (RT, 2 h), washed with PBS three times and incubated with secondary antibodies (RT, 1 h). Primary antibodies used for immunofluorescence include anti-γH2A.X (20E3) (Cell Signalling Technology, 9718. 1:500); anti-RPA32/RPA2 (9H8) (Abcam, ab2175. 1:200); anti-RAD51 (H92) (Santa Cruz Biotechnology, sc-8349. 1:100); anti-BrdU (B44) (BD Biosciences, 347580. 1:100); Coverslips were then mounted on glass slides with mounting medium with DAPI. Images were captured by either standard (Zeiss Axio Imager) or confocal (Zeiss LSM-880) microscopy. Fluorescence signal intensities within each nucleus were analysed by CellProfiler software with custom-made pipelines. Co-localisation analyses were performed with custom-made CellProfiler pipelines. Briefly, nuclei were identified and used to create masks. […]

In test [2] the test system is GFP-RIF1-L-pp1bs foci. Nature of the test: co-localisation of RIF1-L-pp1bs foci with BRCA1, γH2AX, RAD51, HeLa cells. Conditions: HU 4 mM 24 h. On the procedure: Cells were grown on glass coverslips and treated as desired. Cells were then permeabilized with 0.5% TritonX-100 in PBS for 7 min on ice, and fixed with 4% w/v formaldehyde solution (Sigma HT5012) for 10 min at room temperature (RT). After fixation, coverslips were blocked with 3% BSA in PBS (RT, 1 h), incubated with primary antibodies (RT, 2 h), washed with PBS three times and incubated with secondary antibodies (RT, 1 h). Primary antibodies used for immunofluorescence include anti-γH2A.X (20E3) (Cell Signalling Technology, 9718. 1:500); anti-RPA32/RPA2 (9H8) (Abcam, ab2175. 1:200); anti-RAD51 (H92) (Santa Cruz Biotechnology, sc-8349. 1:100); anti-BrdU (B44) (BD Biosciences, 347580. 1:100); Coverslips were then mounted on glass slides with mounting medium with DAPI. Images were captured by either standard (Zeiss Axio Imager) or confocal (Zeiss LSM-880) microscopy. Fluorescence signal intensities within each nucleus were analysed by CellProfiler software with custom-made pipelines. Co-localisation analyses were performed with custom-made CellProfiler pipelines. Briefly, nuclei were identified and used to create masks. Nuclear RIF1-L-pp1bs, BRCA1, γH2AX, RAD51 foci were identified as objects using Otsu thresholding. ‘Relate objects’ function (defining RIF1-L-pp1bs foci as parent object and foci of other proteins as children object) was used to measure the percentage of RIF1-L-pp1bs foci co-localised with other proteins.

The test system of test [3] is GFP-RIF1-L / GFP-RIF1-L-pp1bs foci. Nature of the test: GFP-RIF1 foci formation, HeLa cells. Conditions: HU 4 mM 24 h. The method, then: as §1
In test [4] the test system is RAD51 foci. Nature of the test: RAD51 foci formation, HeLa cells. As to conditions: 24 h HU 4 mM. On the procedure:
Cells were grown on glass coverslips and treated as desired. Cells were then permeabilized with 0.5% TritonX-100 in PBS for 7 min on ice, and fixed with 4% w/v formaldehyde solution (Sigma HT5012) for 10 min at room temperature (RT). After fixation, coverslips were blocked with 3% BSA in PBS (RT, 1 h), incubated with primary antibodies (RT, 2 h), washed with PBS three times and incubated with secondary antibodies (RT, 1 h). […] Fluorescence signal intensities within each nucleus were analysed by CellProfiler software with custom-made pipelines. […]
For proximity ligation assays and immunofluorescence signal intensity measurements, when comparing between two samples, statistical significance of differences was calculated by Mann-Whitney test for non-parametric distributions using GraphPad Prism software (v.9). When comparing among three or more samples, p values were calculated by Kruskal-Wallis test for non-parametric distributions with Dunn’s multiple comparisons using GraphPad Prism software (v.9). For RIF1 foci formation analysis (Fig. 6B), p values were calculated by two-tailed Student’s t test. For nuclear BRCA1 intensity fold change analyses (Fig. 6C, D), p values were calculated by two-tailed one-sample t test using GraphPad Prism software (v.9). For RAD51 foci formation analyses (Fig. 7B, E and Supplementary Fig. 7B), p values were calculated by chi-square test. […]

Test [5] has as its system RIF1-L phosphoS2265. Put plainly: Western blot, RIF1-L phosphoS2265, HeLa cells. Conditions: HU 4 mM 24 h. The method, then: Cells were harvested in 10 mM Tris-HCl pH 7.5, 2 mM EDTA buffer and lysed with laemmli sample buffer (Bio-Rad, 1610737, supplemented with 5% β-mercaptoethanol). Samples were heated at 95 °C for 15 min and centrifuged at 13,000 × g for 15 min. Protein concentrations were measured by RC DC Protein Assay (Bio-Rad, 5000122). Equal amounts of total proteins for each sample were separated in Mini-PROTEAN TGX Stain-free Precast Gels (Bio-Rad) by SDS-PAGE. Gels were at this stage imaged with the ChemiDoc Touch Imaging System (Bio-Rad) using the ‘Protein gel – Stain free’ module to obtain stain-free gel images. Proteins on gel were transferred to PVDF membranes (Bio-Rad, 1704274) using the Trans-Blot Turbo Blotting System (Bio-Rad). Membranes were blocked in 3% BSA in TBS-T (1x TBS supplemented with 0.1% Tween-20) at RT for 1 h, followed by incubation with primary antibodies overnight at 4 °C. Membranes were washed with TBS-T and then incubated with secondary antibodies for 1 h at RT. The blots were developed with Clarity ECL reagents (Bio-Rad, 1705060) and imaged with the ChemiDoc Touch Imaging System (Bio-Rad). Primary antibodies used for western blotting include anti-RIF1 (Bethyl Laboratories, A300-568A. 1:5000); anti-RIF1-L-Phospho-S2265 (amsbio, custom. 1:5000); anti-BRCA1 (D-9) (Santa Cruz Biotechnology, sc-6954. 1:1000); anti-BARD1 (Bethyl Laboratories, A300-263A. 1:1000); anti-53BP1 (Novus Biologicals, NB100-94. 1:5000); anti-PP1α (G4) (Santa Cruz Biotechnology, sc-271762. 1:1000); anti-Tubulin (YOL1/34) (Santa Cruz Biotechnology, sc-53030. 1:4000); anti-FLAG (M2) (Sigma-Aldrich, F1804. 1:2000); anti-GFP (Chromotek, 3h9. 1:2000); anti-RFP (Chromotek, 5f8. 1:2000). Uncropped and unprocessed Western Blot images are provided in the Source Data file.
(A western blot detects proteins with antibodies after separation by electrophoresis.)

The subject of test [6] is ssDNA. Nature of the test: native IdU immunofluorescence (ssDNA), RPE-1 cells. Conditions: HU 4 mM 24 h. The method, then: For detection of iododeoxyuridine (IdU) by immunofluorescence, cells were grown in the presence of 10 µM IdU for 72 h (with Morpholinos added at 24 h and HU added at 48 h). Cells were then permeabilized with 0.5% TritonX-100 in PBS for 7 min on ice, fixed with 4% w/v formaldehyde solution for 15 min at RT, and treated again with 0.5% TritonX-100 in PBS for 10 min on ice. Coverslips were immunostained as described above.

Consider `NC(=O)NO` [HU, hydroxyurea], for which the “chromatin-bound RPA” value in test [1] is “both increased upon HU treatment”. In addition, in test [2], the “RIF1-L-pp1bs foci co-localised with RAD51 and BRCA1” value is ~ 20%; the “RIF1-L-pp1bs foci colocalised with both BRCA1 and γH2AX” value is on record as “Approximately 40%”; the “RIF1-L-pp1bs foci overlapping BRCA1 signal” value is 50–60%; the “RIF1-L-pp1bs foci overlapping γH2AX foci” value was ~ 50%. Moreover, in test [3] (HeLa GFP-RIF1-L-pp1bs), the “HU-treated cells with distinct GFP-RIF1-L-pp1bs foci” value is ~ 70%. The “HU-treated cells with clear GFP-RIF1-L foci” value in test [3] (HeLa GFP-RIF1-L) is given as ~ 10%. Further, the “proportion of cells containing RAD51 foci” value in test [4] is “greatly increased”. Further, the “RIF1-L phosphoS2265 western blot signal” value in test [5] is given as “reduced RIF1-L phosphoS^2265 signal”. Further, the “native IdU staining” value in test [6] was “both increased upon HU treatment”.
